Test results taken from ChEMBL document CHEMBL1201862, “PubChem BioAssay data set” (2004).
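48-hour exposure; five concentrations; linearly interpolated endpoints. GI50 = concentration required for 50% inhibition of growth.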 Activity calls are given as the source filed them. Rule as the data show it: active = GI50 up to about 1.1 µM and inactive = higher.

Columns and labels:
Assay in all cases: DTP human tumour cell line panel, 48 h
EKVX = tested on: EKVX
KM12 = tested on: KM12
HL-60 = tested on: HL-60
A549 = tested on: A549
IGROV-1 = tested on: IGROV-1
SR = tested on: SR
NCI-H522 = tested on: NCI-H522
SF-268 = tested on: SF-268
SF-295 = tested on: SF-295
Hs-578T = tested on: Hs-578T
HOP-62 = tested on: HOP-62
NCI/ADR-RES = tested on: NCI/ADR-RES
Malme-3M = tested on: Malme-3M
786-0 = tested on: 786-0
DU-145 = tested on: DU-145
M14 = tested on: M14
MDA-MB-231 = tested on: MDA-MB-231
COLO 205 = tested on: COLO 205
UACC-62 = tested on: UACC-62
HOP-92 = tested on: HOP-92

Compound | GI50 (EKVX) | GI50 (KM12) | GI50 (HL-60) | GI50 (A549) | GI50 (IGROV-1) | GI50 (SR) | GI50 (NCI-H522) | GI50 (SF-268) | GI50 (SF-295) | GI50 (Hs-578T) | GI50 (HOP-62) | GI50 (NCI/ADR-RES) | GI50 (Malme-3M) | GI50 (786-0) | GI50 (DU-145) | GI50 (M14) | GI50 (MDA-MB-231) | GI50 (COLO 205) | GI50 (UACC-62) | GI50 (HOP-92)
CC1=C(C(=O)OC(C)C)C(c2ccccc2[N+](=O)[O-])C(C(=O)OC(CO[N+](=O)[O-])CO[N+](=O)[O-])=C(C)N1 (configuration not stated) | 2.85 µM (inactive) | 3.75 µM (inactive) | 6.25 µM (inactive) | 3.09 µM (inactive) | 5.26 µM (inactive) | 18.6 µM (inactive) | 2.42 µM (inactive) | 2.51 µM (inactive) | 2.1 µM (inactive) | 3.36 µM (inactive) | 3.07 µM (inactive) | 3.27 µM (inactive) | 3.91 µM (inactive) | 3.62 µM (inactive) | 5.68 µM (inactive) | 3.74 µM (inactive) | 5.68 µM (inactive) | 5.24 µM (inactive) | 2.07 µM (inactive) | –
O=C(NCCCc1cn[nH]c(=O)n1)c1cccc2nc3ccccc3nc12 | > 100 µM (inactive) | > 100 µM (inactive) | > 100 µM (inactive) | > 100 µM (inactive) | > 100 µM (inactive) | 40.6 µM (inactive) | – | 91.8 µM (inactive) | 31.7 µM (inactive) | > 100 µM (inactive) | 47.8 µM (inactive) | > 100 µM (inactive) | 36.5 µM (inactive) | 40.7 µM (inactive) | 63 µM (inactive) | > 100 µM (inactive) | 27.8 µM (inactive) | > 100 µM (inactive) | > 100 µM (inactive) | 75 µM (inactive)
COc1ccc(-n2c(=O)n(C)c(=O)n2-c2c(C)c(C)c(C)c(C)c2C)cc1 | > 100 µM (inactive) | > 100 µM (inactive) | – | > 100 µM (inactive) | > 100 µM (inactive) | – | > 100 µM (inactive) | > 100 µM (inactive) | > 100 µM (inactive) | > 100 µM (inactive) | > 100 µM (inactive) | > 100 µM (inactive) | > 100 µM (inactive) | > 100 µM (inactive) | > 100 µM (inactive) | > 100 µM (inactive) | > 100 µM (inactive) | > 100 µM (inactive) | > 100 µM (inactive) | > 100 µM (inactive)
O=c1c2ccccc2nnn1-c1n[nH]c2ccccc12 | > 100 µM (inactive) | > 100 µM (inactive) | – | > 100 µM (inactive) | > 100 µM (inactive) | – | > 100 µM (inactive) | > 100 µM (inactive) | > 100 µM (inactive) | > 100 µM (inactive) | > 100 µM (inactive) | > 100 µM (inactive) | > 100 µM (inactive) | > 100 µM (inactive) | > 100 µM (inactive) | > 100 µM (inactive) | > 100 µM (inactive) | > 100 µM (inactive) | > 100 µM (inactive) | > 100 µM (inactive)
CCCCCCNC(=S)N/N=C(\C)c1ccccn1 | 0.0176 µM (active) | 0.394 µM (active) | < 0.01 µM (active) | 0.12 µM (active) | < 0.01 µM (active) | < 0.01 µM (active) | 0.06 µM (active) | 0.604 µM (active) | 0.407 µM (active) | 20.7 µM (inactive) | 0.0445 µM (active) | < 0.01 µM (active) | 2.65 µM (inactive) | < 0.0268 µM (active) | 1.52 µM (inactive) | 0.0337 µM (active) | 0.217 µM (active) | < 0.01 µM (active) | 0.182 µM (active) | –
COc1ccc(NC2=CC(=O)C(=O)c3ccccc32)nn1 | 3.1 µM (inactive) | 0.361 µM (active) | 0.273 µM (active) | 3.1 µM (inactive) | 1.69 µM (inactive) | – | 0.492 µM (active) | 1.51 µM (inactive) | 0.822 µM (active) | 1.99 µM (inactive) | – | 0.514 µM (active) | 0.661 µM (active) | 1.86 µM (inactive) | 1.45 µM (inactive) | 0.281 µM (active) | 3.69 µM (inactive) | 1.73 µM (inactive) | 1.34 µM (inactive) | –
NC(=O)c1cc2ccc(O)cc2o/c1=N/NC(=O)c1ccccc1 | > 100 µM (inactive) | 77.1 µM (inactive) | 61 µM (inactive) | > 100 µM (inactive) | 46.7 µM (inactive) | 22.2 µM (inactive) | 42.3 µM (inactive) | > 100 µM (inactive) | > 100 µM (inactive) | 81.3 µM (inactive) | > 100 µM (inactive) | > 100 µM (inactive) | 84.3 µM (inactive) | 79.4 µM (inactive) | – | 86.5 µM (inactive) | 80.5 µM (inactive) | > 100 µM (inactive) | 62.2 µM (inactive) | > 100 µM (inactive)
Cc1ccc(C)c2c1n1c(=O)n(C)c(=O)n21 | > 100 µM (inactive) | > 100 µM (inactive) | > 100 µM (inactive) | > 100 µM (inactive) | > 100 µM (inactive) | – | > 100 µM (inactive) | > 100 µM (inactive) | > 100 µM (inactive) | > 100 µM (inactive) | – | > 100 µM (inactive) | > 100 µM (inactive) | > 100 µM (inactive) | > 100 µM (inactive) | > 100 µM (inactive) | > 100 µM (inactive) | > 100 µM (inactive) | > 100 µM (inactive) | > 100 µM (inactive)
O=S1(=O)NN=C(NCc2ccc(F)cc2)c2ccccc21 | > 100 µM (inactive) | > 100 µM (inactive) | 13.1 µM (inactive) | > 90.2 µM (inactive) | > 72.4 µM (inactive) | > 44.7 µM (inactive) | – | > 100 µM (inactive) | > 71.9 µM (inactive) | 17.5 µM (inactive) | 39.6 µM (inactive) | 65.2 µM (inactive) | > 89.3 µM (inactive) | > 50.9 µM (inactive) | > 100 µM (inactive) | > 50.9 µM (inactive) | > 100 µM (inactive) | > 76.4 µM (inactive) | 34.7 µM (inactive) | 24.7 µM (inactive)
CCOC(=O)c1c(NC(=S)Nc2ccc(C)cc2)sc2c1CCN(C)C2 | > 100 µM (inactive) | 81.7 µM (inactive) | 94.6 µM (inactive) | > 100 µM (inactive) | > 100 µM (inactive) | – | – | > 100 µM (inactive) | > 100 µM (inactive) | > 100 µM (inactive) | > 100 µM (inactive) | > 100 µM (inactive) | – | > 100 µM (inactive) | > 100 µM (inactive) | > 100 µM (inactive) | > 100 µM (inactive) | > 100 µM (inactive) | > 100 µM (inactive) | –
COc1cc(N(C)C)c(OC)cc1/C=C\c1ccnc2ccccc12 | 2.26 µM (inactive) | 0.46 µM (active) | 3.7 µM (inactive) | 7.11 µM (inactive) | 0.824 µM (active) | – | 4.38 µM (inactive) | 3.63 µM (inactive) | 2.86 µM (inactive) | 3.25 µM (inactive) | 4.94 µM (inactive) | 2.56 µM (inactive) | 4.86 µM (inactive) | 4.49 µM (inactive) | 3.46 µM (inactive) | 4.93 µM (inactive) | 2.8 µM (inactive) | 3.55 µM (inactive) | 3.39 µM (inactive) | 2.74 µM (inactive)
Brc1ccc(C2(N3CCCCC3)CCCCC2)s1 | 76.6 µM (inactive) | 28.4 µM (inactive) | 19.4 µM (inactive) | 39 µM (inactive) | 22.2 µM (inactive) | 19.5 µM (inactive) | 27.3 µM (inactive) | 48.9 µM (inactive) | 35.6 µM (inactive) | 36.1 µM (inactive) | 57.5 µM (inactive) | – | 29.3 µM (inactive) | > 100 µM (inactive) | 56.6 µM (inactive) | 24.4 µM (inactive) | 32 µM (inactive) | – | 35.5 µM (inactive) | 19.7 µM (inactive)
Cc1cn(C2CC(N)C(CN)O2)c(=O)[nH]c1=O (configuration not stated) | > 100 µM (inactive) | > 100 µM (inactive) | > 100 µM (inactive) | > 100 µM (inactive) | > 100 µM (inactive) | > 100 µM (inactive) | > 100 µM (inactive) | > 100 µM (inactive) | > 100 µM (inactive) | > 100 µM (inactive) | > 100 µM (inactive) | > 100 µM (inactive) | > 100 µM (inactive) | > 100 µM (inactive) | > 100 µM (inactive) | > 100 µM (inactive) | – | > 100 µM (inactive) | > 100 µM (inactive) | > 100 µM (inactive)
O=C1c2c(ccc3c2CCCC3)CC1Cc1ccc2c(c1)CCCC2 (configuration not stated) | 45.5 µM (inactive) | 59.2 µM (inactive) | 5.46 µM (inactive) | 41.5 µM (inactive) | > 100 µM (inactive) | 9.08 µM (inactive) | – | > 100 µM (inactive) | 33.8 µM (inactive) | 20 µM (inactive) | 87.7 µM (inactive) | – | 54.8 µM (inactive) | 64 µM (inactive) | 83.4 µM (inactive) | 35.7 µM (inactive) | 37.2 µM (inactive) | 30.8 µM (inactive) | 48 µM (inactive) | 22 µM (inactive)
O=C(O)c1ccc(C(c2c(O)oc3ccccc3c2=O)c2c(O)oc3ccccc3c2=O)cc1 | – | > 100 µM (inactive) | 0.0397 µM (active) | > 100 µM (inactive) | – | 44.3 µM (inactive) | – | 4.97 µM (inactive) | > 100 µM (inactive) | 5 µM (inactive) | 43 µM (inactive) | > 100 µM (inactive) | – | > 100 µM (inactive) | > 100 µM (inactive) | 43.1 µM (inactive) | > 100 µM (inactive) | 40.9 µM (inactive) | > 100 µM (inactive) | 2.82 µM (inactive)
